Source: patent publication US20150105252A1, “SUBSTITUTED PYRAZOLES AS HERBICIDES” (E I DU PONT DE NEMOURS AND COMPANY, priority 2013, published 2015)

Assays:
radish, wild [1] = assay: Test D preemergence; type: in vivo, Raphanus raphanistrum; details: scale 0 to 100
Outline: (§1)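 Postemergence activity was tested on plants at the 1- to 4-leaf stage (2–18 cm) grown in peat-based medium, and preemergence activity on seeds in silt loam, with chemicals in a surfactant-containing non-phytotoxic solvent. Controlled-environment growth lasted 14–21 days before visual 0–100 scoring.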

fall panicum = assay: Test F preemergence; type: in vivo, Panicum dichotomiflorum
Source text: (§2) Seeds of plant species selected from corn (Zea mays), soybean (Glycine max), velvetleaf (Abutilon theophrasti), lambsquarters (Chenopodium album), wild poinsettia (Euphorbia heterophylla), pigweed, palmer (palmer pigweed, Amaranthus palmeri), common waterhemp (Amaranthus rudis), surinam grass (Brachiaria decumbens), large crabgrass (Digitaria sanguinalis), crabgrass, Brazil (Brazilian crabgrass, Digitaria horizontalis), fall panicum (Panicum dichotomiflorum), giant foxtail (Setaria faberii), green foxtail (Setaria viridis), goosegrass (Eleusine indica), johnsongrass (Sorghum halepense), common ragweed (Ambrosia elation), barnyardgrass (Echinochloa crus-galli), southern sandbur (Cenchrus echinatus), arrowleaf sida (Sida rhombifolia), Italian ryegrass (Lolium multiflorum), dayflower, VA (Virginia (VA) dayflower, Commelina virginica), field bindweed (Convolvulus arvensis), cocklebur (common cocklebur, Xanthium strumarium), morningglory (Ipomoea coccinea), nightshade (eastern black nightshade, Solanum ptycanthum), kochia (Kochia scoparia), yellow nutsedge (Cyperus esculentus), and hairy beggarticks (Bidens pilosa), were planted into a silt loam soil and treated preemergence with test chemicals formulated in a non-phytotoxic solvent mixture which included a surfactant.
(§3) At the same time, plants from these crop and weed species and also horseweed (Canada horseweed, Conyza canadensis), smartweed (ladysthumb smartweed, Polygonum persicaria), waterhemp_RES1, (ALS & Triazine resistant common waterhemp, Amaranthus rudis), and waterhemp_RES2, (ALS & HPPD resistant common waterhemp, Amaranthus rudis) were treated with postemergence applications of test chemicals formulated in the same manner. Plants ranged in height from 2 to 18 cm for postemergence treatments (1- to 4-leaf stage). Treated plants and controls were maintained in a greenhouse for 14 to 21 days, after which time all species were compared to controls and visually evaluated. Plant response ratings, summarized in Table F, are based on a scale of 0 to 100 where 0 is no effect and 100 is complete control. A dash (-) response means no test result.

radish, wild [2] = assay: Test D postemergence; type: in vivo, Raphanus raphanistrum; details: scale 0 to 100
Outline: as §1

field violet = assay: Test D preemergence; type: in vivo, Viola arvensis; details: scale 0 to 100
Outline: as §1

green foxtail = assay: Test F preemergence; type: in vivo, Setaria viridis
Outline: (§4)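 Visual injury was scored from 0 (none) to 100 (complete control) relative to untreated controls after 14–21 days in a greenhouse. Before that, formulated compound (solvent plus surfactant) was sprayed either on silt-loam soil right after sowing or on emerged plants at the 1–4-leaf stage, 2–18 cm tall.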

mustard, wild = assay: Test D preemergence; type: in vivo, Sinapis arvensis; details: scale 0 to 100
Source text: (§5) Seeds of plant species selected from bluegrass (annual bluegrass, Poa annua), blackgrass (Alopecurus myosuroides), canarygrass (littleseed canarygrass, Phalaris minor), chickweed (common chickweed, Stellaria media), galium (catchweed bedstraw, Galium aparine), bromegrass, downy (downy bromegrass, Bromus tectorum), field poppy (Papaver rhoeas), field violet (Viola arvensis), foxtail, green (green foxtail, Setaria viridis), deadnettle (henbit deadnettle, Lamium amplexicaule), ryegrass, Italian (Italian ryegrass, Lolium multiflorum), kochia (Kochia scoparia), lambsquarters (Chenopodium album), oilseed rape (Brassica napus), pigweed (redroot pigweed, Amaranthus retroflexus), chamomile (scentless chamomile, Matricaria inodora), speedwell (bird's-eye speedwell, Veronica persica), barley, spring (spring barley, Hordeum vulgare), wheat, spring (spring wheat, Triticum aestivum), buckwheat, wild (wild buckwheat, Polygonum convolvulus), mustard, wild (wild mustard, Sinapis arvensis), oat, wild (wild oat, Avena fatua), radish, wild (wild radish, Raphanus raphanistrum), windgrass (Apera spica-venti), Russian thistle (Salsola kali), barley, winter (winter barley, Hordeum vulgare), and wheat, winter (winter wheat, Triticum aestivum) were planted into a silt loam soil and treated preemergence with test chemicals formulated in a non-phytotoxic solvent mixture which included a surfactant.
(§6) At the same time, these species were planted in pots containing Redi-Earth® planting medium (Scotts Company, 14111 Scottslawn Road, Marysville, Ohio 43041) comprising spaghnum peat moss, vermiculite, wetting agent and starter nutrients and treated with postemergence applications of the test chemicals formulated in the same manner. Plants ranged in height from 2 to 18 cm (1- to 4-leaf stage). Treated plants and controls were maintained in a controlled growth environment for 14 to 21 days after which time all species were compared to controls and visually evaluated. Plant response ratings, summarized in Table D, are based on a scale of 0 to 100 where 0 is no effect and 100 is complete control. A dash (-) response means no test result.

velvetleaf = assay: Test F preemergence; type: in vivo, Abutilon theophrasti
Outline: as §4

blackgrass = assay: Test D postemergence; type: in vivo, Alopecurus myosuroides; details: scale 0 to 100
Outline: as §1

soybean = assay: Test F preemergence; type: in vivo, Glycine max
Source text: as §2, §3

yellow nutsedge = assay: Test F preemergence; type: in vivo, Cyperus esculentus
Source text: as §2, §3

deadnettle = assay: Test D postemergence; type: in vivo, Lamium amplexicaule; details: scale 0 to 100
Outline: as §1

barley, spring = assay: Test D preemergence; type: in vivo, Hordeum vulgare; details: scale 0 to 100
Source text: as §5, §6

barley, winter = assay: Test D preemergence; type: in vivo, Hordeum vulgare; details: scale 0 to 100
Source text: as §5, §6

oilseed rape = assay: Test D preemergence; type: in vivo, Brassica napus; details: scale 0 to 100
Outline: as §1

[3] = Preemergence, 31 g ai/ha, scale 0 to 100
[4] = Preemergence, 62 g ai/ha, scale 0 to 100
[5] = Preemergence, 125 g ai/ha, scale 0 to 100
[6] = preemergence, 8 g ai/ha, scale 0 to 100, 100 is complete control
[7] = preemergence, 16 g ai/ha, scale 0 to 100, 100 is complete control

CCc1cc(C(=O)NCC(F)(F)F)nn1Cc1ccnc(C(F)(F)F)c1 [Compound 78, 5-ethyl-N-(2,2,2-trifluoroethyl)-1-[[(2-trifluoromethyl)-4-pyridinyl]methyl]-1H-pyrazole-3-carboxamide]
Plant response rating, Radish, Wild (radish, wild [1]; 31 g ai/ha): 100
Plant response rating, Radish, Wild (radish, wild [1]; 62 g ai/ha): 100
Plant response rating, Radish, Wild (radish, wild [1]; 125 g ai/ha): 100
Plant response rating, Radish, Wild (radish, wild [1]; 250 g ai/ha): 100
Plant response rating, Fall Panicum (fall panicum; [3]): 90
Plant response rating, Fall Panicum (fall panicum; [4]): 100
Plant response rating, Fall Panicum (fall panicum; [5]): 100
Plant response rating, Fall Panicum (fall panicum; [6]): 40
Plant response rating, Fall Panicum (fall panicum; [7]): 70
Radish, Wild plant response rating (radish, wild [2]; Postemergence, 31 g ai/ha): 40
Radish, Wild plant response rating (radish, wild [2]; Postemergence, 125 g ai/ha): 60
Radish, Wild plant response rating (radish, wild [2]; Postemergence, 250 g ai/ha): 75
Radish, Wild plant response rating (radish, wild [2]; postemergence, 62 g ai/ha): 50
Plant response rating, Field Violet (field violet; 31 g ai/ha): 100
Plant response rating, Field Violet (field violet; 62 g ai/ha): 100
Plant response rating, Field Violet (field violet; 125 g ai/ha): 100
Plant response rating, Field Violet (field violet; 250 g ai/ha): 100
Plant response rating, Green Foxtail (green foxtail; [3]): 60
Plant response rating, Green Foxtail (green foxtail; [4]): 100
Plant response rating, Green Foxtail (green foxtail; [5]): 100
Plant response rating, Green Foxtail (green foxtail; [6]): 10
Plant response rating, Green Foxtail (green foxtail; [7]): 60
Plant response rating, Mustard, Wild (mustard, wild; 31 g ai/ha): 100
Plant response rating, Mustard, Wild (mustard, wild; 62 g ai/ha): 100
Plant response rating, Mustard, Wild (mustard, wild; 125 g ai/ha): 100
Plant response rating, Mustard, Wild (mustard, wild; 250 g ai/ha): 100
Plant response rating, Velvetleaf (velvetleaf; [3]): 10
Plant response rating, Velvetleaf (velvetleaf; [4]): 75
Plant response rating, Velvetleaf (velvetleaf; [5]): 95
Plant response rating, Velvetleaf (velvetleaf; [6]): 5
Blackgrass plant response rating (blackgrass; Postemergence, 31 g ai/ha): 5
Blackgrass plant response rating (blackgrass; Postemergence, 125 g ai/ha): 30
Blackgrass plant response rating (blackgrass; Postemergence, 250 g ai/ha): 65
Blackgrass plant response rating (blackgrass; postemergence, 62 g ai/ha): 10
Plant response rating, Soybean (soybean; [3]): 95
Plant response rating, Soybean (soybean; [4]): 80
Plant response rating, Soybean (soybean; [5]): 95
Plant response rating, Soybean (soybean; [6]): 0
Plant response rating, Soybean (soybean; [7]): 0
Plant response rating, Yellow Nutsedge (yellow nutsedge; [3]): 20
Plant response rating, Yellow Nutsedge (yellow nutsedge; [4]): 70
Plant response rating, Yellow Nutsedge (yellow nutsedge; [5]): 90
Plant response rating, Yellow Nutsedge (yellow nutsedge; [6]): 0
Plant response rating, Yellow Nutsedge (yellow nutsedge; [7]): 0
Deadnettle plant response rating (deadnettle; Postemergence, 31 g ai/ha): 15
Deadnettle plant response rating (deadnettle; Postemergence, 125 g ai/ha): 35
Deadnettle plant response rating (deadnettle; Postemergence, 250 g ai/ha): 60
Deadnettle plant response rating (deadnettle; postemergence, 62 g ai/ha): 20
Plant response rating, Barley, Spring (barley, spring; 31 g ai/ha): 20
Plant response rating, Barley, Spring (barley, spring; 62 g ai/ha): 65
Plant response rating, Barley, Spring (barley, spring; 125 g ai/ha): 90
Plant response rating, Barley, Spring (barley, spring; 250 g ai/ha): 100
Plant response rating, Barley, Winter (barley, winter; 31 g ai/ha): 25
Plant response rating, Barley, Winter (barley, winter; 62 g ai/ha): 50
Plant response rating, Barley, Winter (barley, winter; 125 g ai/ha): 65
Plant response rating, Barley, Winter (barley, winter; 250 g ai/ha): 95
Plant response rating, Oilseed Rape (oilseed rape; 31 g ai/ha): 35
Plant response rating, Oilseed Rape (oilseed rape; 62 g ai/ha): 80
Plant response rating, Oilseed Rape (oilseed rape; 125 g ai/ha): 100
Plant response rating, Oilseed Rape (oilseed rape; 250 g ai/ha): 100

CCCc1cc(C(=O)NCC(F)(F)F)nn1Cc1ccnc(C(F)(F)F)c1 [Compound 105]
Plant response rating, Radish, Wild (radish, wild [1]; 31 g ai/ha): 35
Plant response rating, Radish, Wild (radish, wild [1]; 62 g ai/ha): 100
Plant response rating, Radish, Wild (radish, wild [1]; 125 g ai/ha): 100
Plant response rating, Radish, Wild (radish, wild [1]; 250 g ai/ha): 100
Plant response rating, Fall Panicum (fall panicum; [3]): 100
Plant response rating, Fall Panicum (fall panicum; [4]): 100
Plant response rating, Fall Panicum (fall panicum; [5]): 100
Plant response rating, Fall Panicum (fall panicum; [6]): 75
Plant response rating, Fall Panicum (fall panicum; [7]): 80
Radish, Wild plant response rating (radish, wild [2]; Postemergence, 31 g ai/ha): 35
Radish, Wild plant response rating (radish, wild [2]; Postemergence, 125 g ai/ha): 70
Radish, Wild plant response rating (radish, wild [2]; Postemergence, 250 g ai/ha): 80
Radish, Wild plant response rating (radish, wild [2]; postemergence, 62 g ai/ha): 55
Plant response rating, Field Violet (field violet; 31 g ai/ha): 100
Plant response rating, Field Violet (field violet; 62 g ai/ha): 100
Plant response rating, Field Violet (field violet; 125 g ai/ha): 100
Plant response rating, Field Violet (field violet; 250 g ai/ha): 100
Plant response rating, Green Foxtail (green foxtail; [3]): 75
Plant response rating, Green Foxtail (green foxtail; [4]): 100
Plant response rating, Green Foxtail (green foxtail; [5]): 100
Plant response rating, Green Foxtail (green foxtail; [6]): 0
Plant response rating, Green Foxtail (green foxtail; [7]): 25
Plant response rating, Mustard, Wild (mustard, wild; 31 g ai/ha): 100
Plant response rating, Mustard, Wild (mustard, wild; 62 g ai/ha): 100
Plant response rating, Mustard, Wild (mustard, wild; 125 g ai/ha): 100
Plant response rating, Mustard, Wild (mustard, wild; 250 g ai/ha): 100
Plant response rating, Velvetleaf (velvetleaf; [3]): 0
Plant response rating, Velvetleaf (velvetleaf; [4]): 20
Plant response rating, Velvetleaf (velvetleaf; [5]): 40
Plant response rating, Velvetleaf (velvetleaf; [6]): 0
Plant response rating, Velvetleaf (velvetleaf; [7]): 0
Blackgrass plant response rating (blackgrass; Postemergence, 31 g ai/ha): 10
Blackgrass plant response rating (blackgrass; Postemergence, 125 g ai/ha): 65
Blackgrass plant response rating (blackgrass; Postemergence, 250 g ai/ha): 70
Blackgrass plant response rating (blackgrass; postemergence, 62 g ai/ha): 15
Plant response rating, Soybean (soybean; [3]): 100
Plant response rating, Soybean (soybean; [4]): 80
Plant response rating, Soybean (soybean; [5]): 100
Plant response rating, Soybean (soybean; [6]): 0
Plant response rating, Soybean (soybean; [7]): 0
Plant response rating, Yellow Nutsedge (yellow nutsedge; [3]): 25
Plant response rating, Yellow Nutsedge (yellow nutsedge; [4]): 25
Plant response rating, Yellow Nutsedge (yellow nutsedge; [5]): 65
Plant response rating, Yellow Nutsedge (yellow nutsedge; [6]): 0
Plant response rating, Yellow Nutsedge (yellow nutsedge; [7]): 0
Deadnettle plant response rating (deadnettle; Postemergence, 31 g ai/ha): 15
Deadnettle plant response rating (deadnettle; Postemergence, 125 g ai/ha): 55
Deadnettle plant response rating (deadnettle; Postemergence, 250 g ai/ha): 60
Deadnettle plant response rating (deadnettle; postemergence, 62 g ai/ha): 20
Plant response rating, Barley, Spring (barley, spring; 31 g ai/ha): 15
Plant response rating, Barley, Spring (barley, spring; 62 g ai/ha): 40
Plant response rating, Barley, Spring (barley, spring; 125 g ai/ha): 65
Plant response rating, Barley, Spring (barley, spring; 250 g ai/ha): 85
Plant response rating, Barley, Winter (barley, winter; 31 g ai/ha): 5
Plant response rating, Barley, Winter (barley, winter; 62 g ai/ha): 40
Plant response rating, Barley, Winter (barley, winter; 125 g ai/ha): 70
Plant response rating, Barley, Winter (barley, winter; 250 g ai/ha): 95
Plant response rating, Oilseed Rape (oilseed rape; 31 g ai/ha): 0
Plant response rating, Oilseed Rape (oilseed rape; 62 g ai/ha): 10
Plant response rating, Oilseed Rape (oilseed rape; 125 g ai/ha): 70
Plant response rating, Oilseed Rape (oilseed rape; 250 g ai/ha): 95
